PMC11547513, “Design, Synthesis and Biological Activity Evaluation of β-Carboline Derivatives Containing Nitrogen Heterocycles” (Molecules, 2024)
“And” between values parts separate entries of the source, which are not always exact repeats. Equal values may be shown once. Read-outs that look alike come from different tables or passages of the source.

How the values were obtained:
[1] = tested on: A549 (human lung cancer cell); test: MTT assay, in vitro cytotoxicity on A549
Excerpt: (§5) Cells were purchased from the Cell Bank of the Chinese Academy of Sciences (Kunming, China).

[2] = tested on: Cyclin D1; test: Western blot of Cyclin D1 expression in PC-3 cells; format: cell-based, human; details: 30 μM, 24 h, β-Tubulin internal reference
Protocol: (§1) To analyze the effect of compound 8q on cell cycle, the cycle of PC-3 cells was detected after being treated with compound 8q for 24 h (Figure 5). […] In addition, Cyclin D1, a cell cycle-related protein, is a key regulator of cycle progression, mainly regulating G1/S phase transition. […] In summary, compound 8q can arrest cells in the G0/G1 phase. […]
2.6.Effects of 8q on expression of cell cycle related protein
PC-3 cells were seeded in six-well plates at a density of 3 × 10^5 per well and incubated in 5 % CO2 incubator at 37 ℃ for 24 h. Then different concentrations of 8q and Harmine were added to continue cultivation for 24 h. The prepared 1× RIPA lysis buffer (Solarbio, Beijing, China), as well as protease (Solarbio, Beijing, China) and phosphatase inhibitors (Solarbio, Beijing, China), were added to the well in a ratio of 100:1:1. The cells were scraped off and then lysed on ice for 40 min. Mixed liquid was centrifuged, and the supernatant used the BCA protein assay kit (Beyotime, Shanghai, […]
China) to measure protein concentration. 12.5% SDS-PAGE gel was used to separate the extracted total protein, which was transferred onto a PVDF membrane and sealed with 5% skim milk for 2.5 h. After that, primary antibodies included β-Tubulin and Cyclin D1 were added and incubated overnight at 4 ℃. […]

[3] = tested on: PC-3 cells; test: Wound healing assay; format: cell-based, human; details: 24 h, control group 46.41%
Protocol: Given that cell migration plays a pivotal role in tumor cell invasion, to further validate the impact of compound 8q on PC-3 cell motility, a wound healing assay was conducted. […] These findings underscore the potent inhibitory effect of compound 8q on the motility of PC-3 cells. […]
(§2) a wound healing assay was performed using the method we previously reported1. In short, PC-3 cells were seeded in a six-well plate at a density of 10 × 105 and incubated at a constant temperature of 37 ℃ and 5% CO2 for 24 h. Then the pipette tip was used to create a uniform wound on the surface of cells. Subsequently, after cleaning twice with PBS, the scratch healing of the 8q treatment group and the positive drug treatment […]
(§3) was used to measure and quantify cell migration. […]

[4] = tested on: K562 (human chronic myeloid leukemia cell); test: MTT assay, in vitro cytotoxicity on K562
Excerpt: as §5

[5] = tested on: PC-3 cells; test: Colony formation assay; format: cell-based, human; details: Figure 3A
[6] = tested on: PC-3 cells; test: Intracellular ROS assay (DCFH-DA, flow cytometry); format: cell-based, human; details: 10 μM, 24 h; negative control MFI 19.8
Protocol: Apoptosis is an important target for antitumor therapy. To explore the antitumor mechanism of compound 8q, cell apoptosis was detected using flow cytometry. […] Moreover, reactive oxygen species (ROS) play a significant role in cell growth, differentiation and apoptosis. Excessive ROS can cause oxidative damage and lead to cell apoptosis. […]
as §2, §3
PC-3 cells were seeded in a six-well plate at a density of 3 × 105, and cultured at 37 ℃ and 5% CO2 for 24 h before adding 10 μM. […] After completion, the cells were immediately detected on the Flow Cytometry (Solarbio, Beijing, China). […]
at 37 ° C for 20 min. Subsequently, the staining solution was wash off with basic culture medium and detected the fluorescence intensity using the flow cytometer. The data was analyzed and obtained through Flow Jo and Prism 7.04 software. […]
(§4) The distribution of cycles was analyzed by Flow Jo and Prism 7.04 software. […]

[7] = tested on: PC-3 cells; test: Cell cycle assay (PI, flow cytometry); format: cell-based, human; details: 24 h; for Cell cycle distribution, S phase: negative control 20.8%; for Cell cycle distribution, G2/M phase: negative control 23.6%; for Cell cycle distribution, G0/G1 phase: negative control 50.6%
Protocol: as §1
2.5. Cell cycle arrest of compound 8q on PC-3
To determine the effect of compound 8q on the cell cycle distribution of PC-3 cell, we used our previous method with slight modifications2. Briefly, cells were incubated in a six-well plate with a density of 3 × 105 at 37 ℃ and 5% CO2 for 24 h, followed by the addition of different concentrations of compound 8q for further incubation for 24 h.
Next, the cells were collected and washed twice with PBS. 75% anhydrous ethanol was used to immobilize the cells under overnight conditions at 4 ℃. Subsequently, PBS washed cells, and RNase from the cell cycle assay kit (Solarbio, Beijing, China) was added and incubated in a constant temperature (37 ℃) water bath for 30 min. Then PI was added under dark conditions and incubated at 4 ℃ for another half hour to detect.
as §4

[8] = tested on: PC-3 (human prostate cancer cell); test: MTT assay, in vitro cytotoxicity on PC-3
Excerpt: as §5

COc1cc(-c2nc(-c3nnc(SCC(=O)Nc4ccc(CN5CCOCC5)cc4)o3)cc3c2[nH]c2ccccc23)cc(OC)c1OC [Compound 8q, N-(4-(morpholinomethyl)phenyl)-2-((5-(1-(3,4,5-trimethoxyphenyl)-9H-pyrido[3,4-b]indol-3-yl)-1,3,4-oxadiazol-2-yl)thio)acetamide]
IC50 ([1]; A549, read-out: IC50 (Mean ± S.D.), A549): 26.2 ± 1.51 µM | inhibition at 10 µM ([1]; A549, read-out: Inhibitory Activity/% at 10 μM, A549): 32.9 ± 4.3% | Expression of Cyclin D1 [2]: significantly downregulated | Migration rate of PC-3 cells ([3]; 10 μM): 29.56% | Migration rate of PC-3 cells ([3]; 20 μM): 26.32% | Migration rate of PC-3 cells ([3]; 30 μM): 19.99% | IC50 ([4]; Homo sapiens, K562, read-out: IC50 (Mean ± S.D.), K562, average of three replicates): 11.2 µM | inhibition at 10 µM ([4]; Homo sapiens, K562, read-out: Inhibitory Activity/% at 10 μM, K562): 25.6 ± 14.9% | IC50 ([4]; read-out: IC50 (Mean ± S.D.), K562, average of three replicates): 11.7 ± 0.21 µM | Inhibition of colony formation (proliferation) of PC-3 cells [5]: concentration-dependent manner | ROS mean fluorescence intensity (MFI) value [6]: 138 | Cell cycle distribution, S phase ([7]; 10 μM): 14.2% | Cell cycle distribution, G2/M phase ([7]; 10 μM): 20.8% | Cell cycle distribution, G0/G1 phase ([7]; 10 μM): 55.66% and 58.5% | Cell cycle distribution, S phase ([7]; 20 μM): 13.0% | Cell cycle distribution, G2/M phase ([7]; 20 μM): 18.4% | Cell cycle distribution, G0/G1 phase ([7]; 20 μM): 60.83% and 63.0% | Cell cycle distribution, S phase ([7]; 30 μM): 9.01% | Cell cycle distribution, G2/M phase ([7]; 30 μM): 20.5% | Cell cycle distribution, G0/G1 phase ([7]; 30 μM): 62.03% and 64.9% | IC50 ([8]; Homo sapiens, read-out: IC50 (Mean ± S.D.), PC-3, average of three replicates): < 10 µM | inhibition at 10 µM ([8]; Homo sapiens, read-out: Inhibitory Activity/% at 10 μM, PC-3, Table 2 (8 series), 10 μM, average of three replicates, "/" means no anticancer activity): 46.1 ± 0.74% | IC50 ([8]; read-out: IC50 (Mean ± S.D.), PC-3, average of three replicates): 9.86 ± 1.03 µM | melting point: 181.8 to 182.7 °C
